From paper PMC10729476, “Functional characterization of four opsins and two G alpha subtypes co-expressed in the molluscan rhabdomeric photoreceptor” (BMC Biology, 2023)

Assays:
Limax Opn5A = biological target: T1, Limax Opn5A (Ambigolimax valentianus, UniProt A0A455SGG5); assay: UV-VIS absorption spectroscopy of reconstituted purified pigment; assay type: binding; conditions: chromophore added to expressing cells; covalent (retinylidene Schiff base to conserved Lys, general for opsins); 1% dodecyl maltoside extraction; 4 °C; low expression, impurities, spectrum fitted with
T1 construct: wild-type Opn5A in pMT vector, C-terminal rho 1D4 tag (ETSQVAPA; tag stated, 1D4 purification), HEK293S cells, extracted in dodecyl maltoside
T1 sequence (A0A455SGG5 1-425): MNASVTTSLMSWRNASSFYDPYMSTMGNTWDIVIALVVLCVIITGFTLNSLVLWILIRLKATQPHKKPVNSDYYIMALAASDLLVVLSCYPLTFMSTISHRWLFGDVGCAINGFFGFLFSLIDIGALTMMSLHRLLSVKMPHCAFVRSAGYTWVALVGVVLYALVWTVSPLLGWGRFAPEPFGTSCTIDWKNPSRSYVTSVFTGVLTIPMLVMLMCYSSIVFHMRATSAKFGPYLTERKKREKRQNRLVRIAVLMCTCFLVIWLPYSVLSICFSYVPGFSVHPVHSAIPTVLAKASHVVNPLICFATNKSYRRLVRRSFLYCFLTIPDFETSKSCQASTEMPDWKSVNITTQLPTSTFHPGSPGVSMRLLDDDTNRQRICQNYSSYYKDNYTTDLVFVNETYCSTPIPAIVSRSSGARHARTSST

Limax xenopsin = biological target: T2, Limax xenopsin (Ambigolimax valentianus, UniProt A0A455SJK2); assay: as above; assay type: binding; conditions: chromophore added to expressing cells; covalent (retinylidene Schiff base to conserved Lys, general for opsins); 1% dodecyl maltoside extraction; 4 °C
T2 construct: wild-type xenopsin in pMT vector, C-terminal rho 1D4 tag (ETSQVAPA; tag stated, 1D4 purification), HEK293S cells, extracted in dodecyl maltoside
T2 sequence (A0A455SJK2 1-421): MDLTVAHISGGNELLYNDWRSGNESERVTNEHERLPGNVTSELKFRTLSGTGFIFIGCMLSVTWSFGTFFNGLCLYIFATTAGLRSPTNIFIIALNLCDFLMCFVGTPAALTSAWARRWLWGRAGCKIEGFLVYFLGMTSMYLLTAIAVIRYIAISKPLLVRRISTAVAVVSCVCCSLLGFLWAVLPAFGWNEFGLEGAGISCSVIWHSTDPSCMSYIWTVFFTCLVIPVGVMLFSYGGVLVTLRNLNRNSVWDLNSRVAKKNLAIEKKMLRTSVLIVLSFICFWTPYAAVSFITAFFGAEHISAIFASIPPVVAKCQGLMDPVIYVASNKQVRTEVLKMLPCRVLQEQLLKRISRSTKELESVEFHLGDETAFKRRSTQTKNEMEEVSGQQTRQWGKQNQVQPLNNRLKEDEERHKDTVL

## CC1=C(/C=C/C(C)=C/C=C\C(C)=C\C=O)C(C)(C)CCC1 [11-cis retinal]
Limax Opn5A
  UV-VIS absorption spectroscopy of reconstituted purified pigment: After the addition of the 11-cis retinal, opsin-based pigments were extracted
Limax xenopsin
  UV-VIS absorption spectroscopy of reconstituted purified pigment: After the addition of the 11-cis retinal, opsin-based pigments were extracted
